This passage reports melting point results from a melting point compilation (Tetko et al.).

Regarding `Cc1cc(C(F)(F)F)n2nc(N)c(/N=N/c3ccc(Cl)cc3)c2n1`, the melting point is 250 °C.

The compound `CC(C)CS` returned a melting point of -145 °C.

Turning to `O=C(O)CCc1cc(Br)c(O)c(Br)c1`, the melting point was in the range of 108 to 110 °C.

The compound `COc1cc(C=C(S)C(=O)O)ccc1O` had a melting point of 161 °C.

In the case of `CC(=O)OC1CCC2C3CCC4=CC(O)CCC4(C)C3CCC12C` (centres undefined), the melting point is 96 °C.

Consider `NN=C(/C(=N/N)c1ccccc1)c1cccc2ccccc12`, for which the melting point was 217 to 218 °C.

In the case of `NN=C(C(=O)c1ccccc1)c1ccccc1`, the melting point was 147 to 151 °C.

Consider `CCOC(=O)c1nn(-c2ccccc2)c(=N)c(-c2nc3ccccc3s2)c1C`, for which the melting point amounted to 148 °C.

`Cc1cc(C#N)ccc1[N+](=O)[O-]` yielded a melting point of 81 °C.

`NC(=NO)c1cccnc1` showed a melting point of 130 to 131 °C.

The compound `Fc1ccc(C(Br)Br)c(C(Br)Br)c1` had a melting point of 92 to 97 °C.

The compound `N#CCOc1ccc(C2=NCCS2)cc1` had a melting point of 83 to 85 °C.

In the case of `CCCCCCCCCCCCOC(=O)CCSCCC(=O)OCCCCCCCCCCCC`, the melting point came out at 41 °C.

The compound `CCC(C)C(NC(=O)OCC1c2ccccc2-c2ccccc21)C(=O)O` (centres undefined) returned a melting point of 146 to 149 °C.

As to `NC1CCC(c2ccccc2)CC1CO` (centres undefined), the melting point fell in the range of 116 to 122 °C.

Consider `Nc1ncccc1I`, for which the melting point amounted to 90 °C.

Turning to `C=Cc1cc(C)ccc1C`, the melting point is -35 °C.

`NC(=S)c1cccc(F)c1` yielded a melting point of 110 °C.

For `CCOC(=O)C(C)(C)C1(O)CCC2(C)C(CCC3C2CCC2(C)C(OCc4ccccc4)CCC32)C1` (centres undefined), the melting point turned out to be 147 °C.

`Cc1ccc(C(=O)CCCCl)cc1` came in with a melting point of 31.5 °C.

For `COc1ccc(-c2csc(/C(C#N)=N\Nc3cc(C)ccc3C)n2)cc1`, the melting point came out at 155 °C.

As for `O=C1C(CCl)(CCl)CCC1(CCl)CCl`, the melting point worked out at 72 °C.

In turn, `CC(C)OC(=O)COc1ccc(Cl)cc1Cl` registered a melting point of 5 °C.

The compound `C=C1CCC1` returned a melting point of -135 °C.

The compound `COc1ccc(Oc2ncccc2[N+](=O)[O-])cc1` showed a melting point of 95 to 101 °C.

On to `CC(=O)c1ccccc1OCc1ccccc1`, for which the melting point is 38 to 40 °C.

The compound `O=C(O)CN1C(=O)c2ccccc2C1=O` displayed a melting point of 195 to 198 °C.

Compound `C=CC(=O)OCC(C)C` came in with a melting point of -61 °C.

On to `NC(=S)c1cnccc1C(F)(F)F`, for which the melting point is 153 to 156 °C.

On to `CC(=O)c1ccc(-c2cccs2)s1`, for which the melting point fell in the range of 109 to 114 °C.

As to `CC(=O)Oc1cc(C)c(OC(C)=O)c2ccccc12`, the melting point came out at 113 °C.

Consider `O=CCC=O`, for which the melting point turned out to be 72 °C.

As to `Oc1c(F)ccc(F)c1F`, the melting point came out at 33.5 °C.

As to `O=C(O)c1cccc(Cl)n1`, the melting point worked out at 194 °C.

`O=C1c2ccccc2C(=O)c2c(O)c(O)cc(O)c21` gave a melting point of 259 °C.

Turning to `COc1ccc(C2C3=C(CC(C)(C)CC3=O)Nc3ccc4ccccc4c32)cc1` (centres undefined), the melting point turned out to be 288 °C.

As for `c1ccc(-c2cccc3ccccc23)cc1`, the melting point came out at 45 °C.

Consider `C1=CC=CC=CC=C1`, for which the melting point is -4.7 °C.

For the compound `N#CCCN1CCCCC1`, the melting point is -6.8 °C.

Consider `Nc1nn2c(C(F)(F)F)cc(=O)[nH]c2c1/N=N/c1ccccc1`, for which the melting point was found to be 283 °C.

`COc1ccc2nc(-c3ccccc3)cc(Cl)c2c1` had a melting point of 121 to 124 °C.

As for `COC(=O)c1cc2cc3c(cc2cc1C(=O)OC)CC3`, the melting point turned out to be 124 °C.

For `CN(O)C(=O)Cc1ccc(OCc2ccccc2)cc1`, the melting point was determined as 96 °C.

For `COC(=O)c1ccccc1S(=O)(=O)NC(=O)Nc1nc(OC(F)F)cc(OC(F)F)n1`, the melting point amounted to 196 °C.

Compound `Cc1ccc(C(=O)C=Cc2ccc(F)cc2)cc1` came in with a melting point of 119 to 121 °C.

`C=C1N(C(C)=O)c2ccccc2C1(C)C(=O)OC` (centres undefined) registered a melting point of 59 to 61 °C.

The compound `CN(C)NC(=O)CCC(=O)O` registered a melting point of 158 to 162 °C.

`N#Cc1[nH]cnc2ncnc1-2`: the melting point worked out at 188 °C.

The compound `C=CC1CNCCC1CCC(=O)c1ccnc2ccc(OC)cc12` (centres undefined) came in with a melting point of 60 °C.

The compound `Oc1cccc(Cl)n1` yielded a melting point of 130 °C.

As for `Nc1nc2ccc([N+](=O)[O-])cc2s1`, the melting point lay within 247 to 249 °C.

`CO[Si](OC)(OC)c1ccccc1` had a melting point of -25 °C.

As for `CC(C)C(C(=O)O)C(=O)O`, the melting point lay in the range of 90 to 93 °C.

Compound `CC(C)C1=CC2=C(CC1)C1(C)CCCC(C)(C(=O)O)C1CC2` (centres undefined) had a melting point of 164 °C.

Turning to `c1ccc(Sc2ccc3ccccc3n2)cc1`, the melting point was 48 °C.

The compound `Cc1ccc(S(=O)(=O)N2C/C(=C\c3cccc(Cl)c3)N(S(=O)(=O)c3ccc(C)cc3)c3ccccc32)cc1` displayed a melting point of 145 °C.

`O=C1CC2C(CC(OC(=O)c3ccc(-c4ccccc4)cc3)C2CO)O1` (single isomer, unassigned; (-)) registered a melting point of 128 to 134 °C.

Consider `Cc1cc(C(=O)Cl)nn1C`, for which the melting point lay in the range of 73 to 74 °C.

As to `Cc1ncc([N+](=O)[O-])n1CC(O)CCl` (centres undefined), the melting point was 77.5 °C.

Regarding `CC(=O)N(C(C)=O)c1cc(C=CC(=O)O)ccc1C=CC(=O)O`, the melting point was in the range of 310 to 315 °C.

Regarding `O=C(c1ccccc1)c1ccc(F)c(F)c1`, the melting point was 56 °C.

For `Nc1ccccc1C(=O)c1ccccc1C(=O)O`, the melting point lay in the range of 196 to 200 °C.

As to `C[C@@H]1CNCCN1`, the melting point was 86 to 91 °C.

Regarding `CCOC(=O)C1=C(N)CCC1`, the melting point was in the range of 57 to 60 °C.

`CC12CCC3C(CCC4CC5(CCC43C)OCCO5)C1CCC2=O` (centres undefined) gave a melting point of 153 °C.

In turn, `O=C(O)CF` gave a melting point of 35.2 °C.

As for `O=C(O)C(O)C(O)C(OC1OC(CO)C(O)C(O)C1O)C(O)CO` (centres undefined), the melting point fell in the range of 113 to 118 °C.

As to `Nc1ccc(O)cc1C(=O)O`, the melting point is 233 to 234 °C.

`Cc1nc(NC(=O)NS(=O)(=O)c2cccs2)nc(Cl)c1C` had a melting point of 201 to 203 °C.

Regarding `C[C@]12CCC(=O)C(Br)[C@H]1CC[C@@H]1[C@@H]2CC[C@]2(C)C(O)CC[C@@H]12` (some centres undefined), the melting point came to 143 °C.

In the case of `O=C(CCCc1ccccc1)c1ccccc1`, the melting point lay within 55 to 59 °C.

For the compound `CCCCC(=O)OC1(C(=O)CO)CCC2C3CCC4=CC(=O)C=CC4(C)C3C(O)CC21C` (centres undefined), the melting point was 212 °C.

`OC1C=C2CCN3Cc4cc5c(cc4C(C1O)C23)OCO5` (centres undefined) came in with a melting point of 280 °C.

`Cn1c(=O)c(C2=NNC(=O)C2=Cc2ccccc2)c(O)c2ccccc21` returned a melting point of 283 °C.

On to `O=C1CC(c2ccc([N+](=O)[O-])cc2)=NN1c1ccccc1`, for which the melting point came out at 189 °C.

Compound `COc1ccc(F)c(O)c1F` displayed a melting point of 75 °C.

In the case of `O=C(O)c1ncoc1-c1ccccc1`, the melting point stood at 181 °C.

`COc1ccc(N2C(=O)C3ON=C(C(=O)c4ccccc4)C3C2=O)cc1` (centres undefined) registered a melting point of 166 °C.

The compound `CC1=C(CC(=O)O)c2cc(F)ccc2C1=Cc1ccc(S(C)=O)cc1` (centres undefined) displayed a melting point of 184 °C.

Compound `COc1ccc(Oc2ccc(C(F)(F)F)cc2[N+](=O)[O-])cc1` came in with a melting point of 45 to 47 °C.

Turning to `O=C(O)C(=O)c1ccc([N+](=O)[O-])cc1`, the melting point turned out to be 110 °C.

For the compound `O=C(O)c1ccc(Cl)cc1Br`, the melting point fell in the range of 159 to 161 °C.

`CC(C)(C)c1ccc2c(c1)-c1cc(C(C)(C)C)ccc1C2` returned a melting point of 81 °C.

The compound `CC(C)(C)OC(=O)NCC1CCN(Cc2ccccc2)CC1` returned a melting point of 102 to 103 °C.

The compound `Cn1c(C(F)(F)F)n[nH]c1=S` gave a melting point of 116 to 118 °C.

In turn, `O=c1oc(=O)c2ccccc2c2ccccc12` yielded a melting point of 223 to 227 °C.

Compound `CC(C)(C)OC(=O)NCc1cccc(CO)c1` had a melting point of 51 to 55 °C.

Consider `O=C(c1ccco1)c1nn2c(nc(=O)c3ccccc32)s1`, for which the melting point was determined as 325 °C.

In turn, `Nc1nc(-c2ccc3c(c2)Cc2ccccc2-3)cs1` yielded a melting point of 261 to 264 °C.

As for `O=[N+]([O-])C=Cc1c(Cl)cccc1Cl`, the melting point lay in the range of 62 to 66 °C.

Compound `CN1CCN(C2CCNCC2)CC1` gave a melting point of 54.5 °C.

Compound `CSc1c(C#N)c(N)nc2c(/N=N/c3cccc(C(F)(F)F)c3)c(N)nn12` gave a melting point of 293 °C.

In turn, `CC1CSC(C=Cc2ccccc2[N+](=O)[O-])S1` (centres undefined) yielded a melting point of 70 °C.

As for `Cc1nnc(NS(=O)(=O)c2ccc(N)cc2)s1`, the melting point amounted to 208 °C.

`Nc1nc(Br)c2ccccc2c1Cc1ccccc1` yielded a melting point of 155 to 156 °C.

`O=C(NO)OCc1ccccc1` came in with a melting point of 68 °C.

Regarding `CC(O)CN(CCO)CCO` (centres undefined), the melting point lay in the range of 31.5 to 36 °C.

`COC(=O)CCC(C)C1CCC2C3C(OC(C)=O)CC4CC(OC(C)=O)CCC4(C)C3CC(=O)C12C` (centres undefined) gave a melting point of 178 °C.

The compound `O=C1CCC2(O)C3Cc4ccc(O)c5c4C2(CCN3CC2CC2)C1O5` (centres undefined) had a melting point of 169 °C.

Consider `COC(=O)c1ccc(O)c(Cl)c1`, for which the melting point came to 107 °C.

Take `Clc1cc2c(cc1Cl)Oc1cc(Cl)c(Cl)cc1O2`: the melting point was determined as 305 °C.

Regarding `CC(=O)CC(=O)Nc1ccc(Cl)cc1`, the melting point came out at 132 °C.

For `CC(=O)OCC1OC(n2ncc(=O)[nH]c2=O)C(OC(C)=O)C1OC(C)=O` (centres undefined), the melting point lay in the range of 99 to 101 °C.

Compound `CSc1nc(N)nc(C2CC2)n1` yielded a melting point of 157 to 159 °C.

The compound `CCCCCCCCCCCCc1ccccc1S(=O)(=O)O` displayed a melting point of 10 °C.

In turn, `CC(C)(C)C(=O)Nc1ccncc1C=O` yielded a melting point of 60 to 64 °C.

`CCOC(=O)c1ccc(C#N)cc1` yielded a melting point of 54 °C.

`Cc1nc(-c2ccc3c(c2)CCO3)sc1C(=O)Cl` came in with a melting point of 150 to 154 °C.

Compound `Cc1n[nH]c(S)n1` had a melting point of 275 to 277 °C.
